# Data taken from patent US5300279A, “Organic amine phosphonic acid complexes for the treatment of calcific tumors” (The Dow Chemical Company, priority 1990, dated 1994).
# Where two headings read alike, the source gives them in different places.
# How the values were obtained:
# [1] = Experimental: (§1) Sterile pyrogen-free vials were prepared to contain 210 mg of EDTMP and 140 mg NAOH by freeze-drying a solution containing appropriate amounts of EDTMP and NAOH. The vials were sealed under vacuum. To prepare one of the compositons of the invention, 6 ml of a solution containing Sm-153 (approximately 3×10^-4 M in Sm) in 0.1M HCl was injected into the sealed vial through a septum.
# Urine was collected and counted to determine the percentage of the radioactivity excreted as a function of time after injection.
# [2] = biolocalization of the radionuclide in rats (tissue distribution after tail vein injection); format: in vivo, male Sprague Dawley rats; conditions: Sm-153, rats
# Experimental: Studies to determine the qualitative biodistribution of the various radionuclides were conducted by injecting the compositions into rats and obtaining the gamma ray images of the entire animal at various times up to two hours after injection.
# Laboratory rats were injected with the above complex (50-100 μl) via the tail vein. After 2 hours, the animals were sacrificed by cervical dislocation and organs and tissues removed. Samples were counted with a NaI counter to determine the biolocalization of the radionuclide.
# [3] = humans
# [4] = test system: tumor
# Experimental: An English Setter with a tumor in his pelvis was injected with approximately 19 mCi of a composition containing Sm-153-EDTMP. After 2 hours, the dog was imaged using a scintillation camera.
# An Irish setter with undifferentiated sarcoma metastatic to bone was treated with 16 mCi (0.57 mCi/kg) of a composition containing Sm-153-EDTMP. […] After approximately 3 months, when signs of lameness began to reappear, the dog was given a second treatment of 15 mCi (0.49 mCi/kg), of a composition containing Sm-153-EDTMP.
# A female Irish Wolfhound with a possible osteosarcoma on the left distal radius was injected with a composition containing ^166 Ho-EDTMP (0.97 mCi/kg).
# [5] = test system: lesion / normal bone; conditions: compared with Tc-99m-MDP
# Experimental: Thus, two holes were drilled into the surface of the tibia of a rabbit in order to damage the bone. Seven to ten days later, the animal was injected with the radionuclide composition. After three hours, the rabbit was anesthetized and imaged using an Anger camera and pinhole collimator.
# [6] = test system: white blood cells and platelets; conditions: for platelet and white blood cell levels: 2-3 weeks after administration
# Experimental: A series of normal beagles was treated with various dose levels of a composition containing Sm-153-EDTMP. White blood cell and platelet counts were measured weekly to check for signs of bone marrow supression.
# [7] = rabbits, three hour, averaged for 5 rabbits
# Experimental: Biolocalization studies were also performed in rabbits. The rabbits were injected with 100-250 microliters of the composition into the marginal ear vein. In studies where blood clearance was measured, blood samples were taken through a heparinized cannula placed in the marginal vein of the ear not used for injection. Three hours after injection, a blood sample was taken from each rabbit by cardiac puncture and each animal was sacrificed by injection of a commercial euthanasia solution. After sacrifice, images were obtained by placing the carcass directly on the face of a large field-of-view scintillation camera.
# Whenever in the following examples and tables data is presented on the administered dose of radioactivity, the numbers given represent the percentage of the administered dose which localized in the indicated tissue. The ratios of radioactivity observed in bone relative to blood and muscle were calculated based on the percent dose per gram in the bone and in the blood and muscle. Whenever the ratios of radioactivity found in bone to that found in nonosseous tissue is given, the calculation was made as indicated above on a percent dose per gram basis.
# Compositions containing Sm-153-EDTMP (compositions prepared as in Example 2) were also tested in rabbits.
# [8] = for Percent Injected Dose Remaining in Whole Blood, Average: average of 5 patients
# Experimental: as §1
# Five humans with metastatic bone cancer (three with lung cancer and two with prostate cancer as the primary site) were injected with a composition containing 2 mCi of Sm-153-EDTMP. Blood samples were taken intermittently to determine the fraction of the Sm-153 remaining in the blood.
# [9] = test system: cancerous lesions; test: scintigraphic imaging in humans with metastatic bone cancer; format: in vivo
# Experimental: Scintigraphic images were obtained two hours post injection and were used for comparison with images previously obtained using Tc-99m-HDP (hydroxymethylenediphosphonate), a commercially available diagnostic bone imaging agent.
# The uptake observed for each radionuclide in selected lesions compared to its uptake in normal bone was determined using digitized images.
# [10] = 2 hours, ratio of percent dose per gram, average of 5 rats
# [11] = Irish setter, nine months after second treatment
compound,measurement,setting,value
O=P([O-])(O)CN(CCN(CP(=O)([O-])O)CP(=O)(O)O)CP(=O)([O-])O.[153Sm+3] [Example 2],"Percent Excretion in Urine, Average","[1]; 1 Hr., average of 5 patients",26.13%
same,"Percent Excretion in Urine, Average","[1]; 2 Hr., average of 5 patients",7.15%
same,"Percent Excretion in Urine, Average","[1]; 4-8 Hr., average of 5 patients",9.02%
same,"Percent Excretion in Urine, Average","[1]; 4 Hr., average of 5 patients",10.95%
same,"Percent Excretion in Urine, Average","[1]; 8-12 Hr., average of 5 patients",1.76%
same,"Percent Excretion in Urine, Average","[1]; 12-24 Hr., average of 5 patients",1.07%
same,"Percent Excretion in Urine, 24 Hr Total, Average","[1]; 24 Hr Total, average of 5 patients",56.09%
same,clearance of radioactivity into the urine,"[1]; humans, words",cleared rapidly
same,scintillation scans,[2],the radioactivity concentrating in the skeletal system
same,clearance of radioactivity through the kidneys into the urine,[2]; 2 hours,Most of the radioactivity not found in the skeleton was cleared through the kidneys into the urine
same,radioactivity concentrated in the skeletal system,[2]; 2 hours,55-65%
same,soft tissue uptake,[2]; 2 hours,very little soft tissue uptake
same,% Dose in Blood,"[2]; 2 hours, average of 5 rats",0.032 % Dose
same,% Dose in Liver,"[2]; 2 hours, average of 5 rats",0.25 % Dose
same,% Dose in Skeleton,"[2]; 2 hours, average of 5 rats",58 % Dose
same,% Dose in Urine,"[2]; 2 hours, average of 5 rats",49 % Dose
same,Bone/Blood,[2]; [10],1800
same,Bone/Muscle,[2]; [10],1500
same,"blood profiles (white blood cell, red blood cell, platelet count) and serum chemistry profiles",[3]; post-injection vs preinjection,No significant changes
same,vital signs,[3]; several post injection times vs preinjection,not significantly different than preinjection values
same,pain / mobility,"[4]; English Setter, approximately 19 mCi, seven days after treatment",appeared to be in less pain as evidenced by an increase in its mobility
same,pain / mobility / lameness,"[4]; Irish setter, 16 mCi (0.57 mCi/kg), seven days after treatment",appeared to be in less pain as evidenced by an increase in mobility and a decrease in lameness
same,time until signs of lameness began to reappear,"[4]; Irish setter, after first treatment 16 mCi (0.57 mCi/kg)",approximately 3 months
same,lameness and general health,"[4]; Irish setter, eight months after second treatment","no recurrence of lameness, had gained weight and appeared healthy"
same,regression of bone lesions (X-rays),"[4]; Irish setter, five months after second treatment",significant regression of bone lesions
same,death,[4]; [11],died of kidney failure
same,total necropsy,[4]; [11],no evidence of cancer
same,mobility / lameness after second treatment,"[4]; Irish setter, second treatment 15 mCi (0.49 mCi/kg), seven days",general increase in mobility and decrease in lameness
same,lesion to normal bone ratio,[5],approximately equal to that of Tc-99m-MDP
same,platelet and white blood cell levels,[6]; 0.5 mCi Sm-153/kg,smaller decrease in the levels of platelets and white blood cells
same,time to return of white cells and platelets to normal levels,"[6]; 0.5 mCi Sm-153/kg, few animals that fell below normal",4-5 weeks
same,time to return of white cells and platelets to normal levels,[6]; 1.0 mCi Sm-153/kg,4-5 weeks
same,platelet and white blood cell levels,[6]; 1.0 mCi Sm-153/kg,slight decrease in both platelets and white blood cells
same,% Dose in Blood,[7],0.12 % Dose
same,% Dose in Bone Marrow,[7],0.15 % Dose
same,% Dose in Liver,[7],0.95 % Dose
same,% Dose in Skeleton,[7],66 % Dose
same,% Dose in Urine,[7]; 180 min,34 % Dose
same,Bone/Blood,[7]; ratio of percent dose per gram,900
same,Bone/Muscle,[7]; ratio of percent dose per gram,1200
same,"Percent Injected Dose Remaining in Whole Blood, Average",[8]; 5 min.,31.63 Percent Injected Dose
same,"Percent Injected Dose Remaining in Whole Blood, Average",[8]; 15 min.,20.90 Percent Injected Dose
same,"Percent Injected Dose Remaining in Whole Blood, Average",[8]; 30 min.,15.77 Percent Injected Dose
same,"Percent Injected Dose Remaining in Whole Blood, Average",[8]; 60 min.,9.53 Percent Injected Dose
same,"Percent Injected Dose Remaining in Whole Blood, Average",[8]; 120 min.,5.17 Percent Injected Dose
same,"Percent Injected Dose Remaining in Whole Blood, Average",[8]; 180 min.,3.28 Percent Injected Dose
same,"Percent Injected Dose Remaining in Whole Blood, Average",[8]; 240 min.,2.08 Percent Injected Dose
same,concentration of radioactivity in red cells,[8]; humans,no significant concentration of radioactivity in red cells
same,radioactivity in the plasma fraction,[8]; humans,all of the measured activity was in the plasma fraction
same,clearance of radioactivity from the blood,"[8]; humans, words",the radioactivity cleared very rapidly from the blood
same,Sm-153 concentration in cancerous lesions,[9]; compared with dogs,"high, selective and similar to that observed in dogs"
same,localization of radioactivity in lesions vs normal bone compared with Tc-99m-HDP,[9]; digitized images,localization of radioactivity in the lesions to a similar extent
same,visibility of cancerous lesions compared with Tc-99m-HDP,[9]; qualitative comparison of images,all cancerous lesions observable with Tc-99m-HDP are seen equally well with Sm-153-EDTMP
same,retention of radioactivity in the kidneys,[9]; two hour post injection images,no observable retention of radioactivity in the kidneys
same,localization of Sm-153 in scintigraphic images,[9]; two hours post injection,localized in skeletal tissue with no significant uptake and retention in non-osseous tissues
